Eleven compounds from patent US10647713B2 (Nimbus Lakshmi, Inc., priority 2016, dated 2020) can be followed below.

As a reminder, the Kd is the free concentration of one partner at which half of the binding sites on the other are occupied at equilibrium, for simple one-to-one binding. A low value points to tighter binding.

Each structure is given as a SMILES string. A value given as a limit tells only on which side of the number the result lay.

For the assay, the target named is human TYK2 (JH2domain-pseudokinase) (Homo sapiens (Human), UniProt P29597). The experiment in a line: TYK2 JH2 Domain Binding Assay (KINOMEscan, DiscoveRx). To be noted: 11-point dilution, duplicate. In short, it runs like this: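 TYK2 JH2 (G556–D888)–NFkB DBD fusion, DNA-tagged, from HEK293 extracts (<0.1 nM) competed against immobilised biotinylated ligand for 1 h at room temperature, 0.9% DMSO. Bead-retained kinase quantified by qPCR; Kd from 11-point 3-fold series (top 30,000 nM, duplicate), Hill fit with slope −1.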
Sequence of human TYK2 (JH2domain-pseudokinase) (P29597 556-888): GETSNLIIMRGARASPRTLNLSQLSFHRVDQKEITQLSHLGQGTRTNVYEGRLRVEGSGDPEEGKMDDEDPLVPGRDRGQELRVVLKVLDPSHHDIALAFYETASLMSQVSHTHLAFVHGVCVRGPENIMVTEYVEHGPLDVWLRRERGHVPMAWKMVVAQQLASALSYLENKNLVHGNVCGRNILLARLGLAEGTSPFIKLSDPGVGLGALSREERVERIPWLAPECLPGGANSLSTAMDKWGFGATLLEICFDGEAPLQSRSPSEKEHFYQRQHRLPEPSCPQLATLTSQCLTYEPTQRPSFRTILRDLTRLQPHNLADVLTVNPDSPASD
`Cc1cc(Nc2cc(Nc3ccc(C4=NC(C)(C)CS4)cc3S(C)(=O)=O)c3nc(C)[nH]c3n2)nc(C)n1` [I-564, N7-(4-(4,4-dimethyl-4,5-dihydrothiazol-2-yl)-2-(methylsulfonyl)phenyl)-N5-(2,6-dimethylpyrimidin-4-yl)-2-methyl-3H-imidazo[4,5-b]pyridine-5,7-diamine] showed a Kd of 0.1 to 0.5 nM.
With `Cc1ncc(Nc2cc(Nc3ccc(C4=NC(C)(C)CS4)cc3S(C)(=O)=O)c3nc(C(F)F)[nH]c3n2)nc1C` [I-565, 2-(difluoromethyl)-N7-(4-(4,4-dimethyl-4,5-dihydrothiazol-2-yl)-2-(methylsulfonyl)phenyl)-N5-(5,6-dimethylpyrazin-2-yl)-3H-imidazo[4,5-b]pyridine-5,7-diamine] the figure was 1 to 10 nM; with `Cc1nc2c(Nc3ccc(C4=NC(C)(C)CS4)cc3S(C)(=O)=O)cc(Nc3cnc(C)c(C)n3)nc2[nH]1` [I-566, N7-(4-(4,4-dimethyl-4,5-dihydrothiazol-2-yl)-2-(methylsulfonyl)phenyl)-N5-(5,6-dimethylpyrazin-2-yl)-2-methyl-3H-imidazo[4,5-b]pyridine-5,7-diamine], 1 to 10 nM.
With `CC1(C)CSC(c2ccc(Nc3cc(NC(=O)C4CC4)nc4[nH]c(C(F)F)nc34)c(S(C)(=O)=O)c2)=N1` [I-567, N-(2-(difluoromethyl)-7-((4-(4,4-dimethyl-4,5-dihydrothiazol-2-yl)-2-(methylsulfonyl)phenyl)amino)-3H-imidazo[4,5-b]pyridin-5-yl)cyclopropanecarboxamide] the figure was 1 to 10 nM; with `Cc1nc2c(Nc3ccc(C4=NC(C)(C)CS4)cc3S(C)(=O)=O)cc(NC(=O)C3CC3)nc2[nH]1` [I-568, N-(7-((4-(4,4-dimethyl-4,5-dihydrothiazol-2-yl)-2-(methylsulfonyl)phenyl)amino)-2-methyl-3H-imidazo[4,5-b]pyridin-5-yl)cyclopropanecarboxamide], 0.5 to 1 nM.
`Cc1nc2c(Nc3ccc([C@H]4CCCO4)cc3S(C)(=O)=O)cc(Nc3cccc(C#N)n3)nc2[nH]1` [I-569, (R)-6-((2-methyl-7-((2-(methylsulfonyl)-4-(tetrahydrofuran-2-yl)phenyl)amino)-3H-imidazo[4,5-b]pyridin-5-yl)amino)picolinonitrile] had a dissociation constant (Kd) of less than 0.1 nM.
The compound `Cc1nc2c(Nc3ccc([C@@H]4CCCO4)cc3S(C)(=O)=O)cc(Nc3cccc(C#N)n3)nc2[nH]1` [I-570, (S)-6-((2-methyl-7-((2-(methylsulfonyl)-4-(tetrahydrofuran-2-yl)phenyl)amino)-3H-imidazo[4,5-b]pyridin-5-yl)amino)picolinonitrile] showed a dissociation constant Kd of 0.1 to 0.5 nM.
The result for `CS(=O)(=O)c1cc(C2CCC(F)(F)CO2)ccc1Nc1cc(NC(=O)C2CC2)nc2[nH]c(C(F)F)nc12` (centres unmarked) [I-571, N-(2-(difluoromethyl)-7-((4-(5,5-difluorotetrahydro-2H-pyran-2-yl)-2-(methylsulfonyl)phenyl)amino)-3H-imidazo[4,5-b]pyridin-5-yl)cyclopropanecarboxamide] reads 0.1 to 0.5 nM; that for `Cc1nc2c(Nc3ccc(C4CCC(F)(F)CO4)cc3S(C)(=O)=O)cc(NC(=O)C3CC3)nc2[nH]1` (centres unmarked) [I-572, N-(7-((4-(5,5-difluorotetrahydro-2H-pyran-2-yl)-2-(methylsulfonyl)phenyl)amino)-2-methyl-3H-imidazo[4,5-b]pyridin-5-yl)cyclopropanecarboxamide], 0.1 to 0.5 nM; that for `COc1c(Nc2cc(Nc3cccc(C#N)n3)nc3[nH]c(C)nc23)cccc1-c1nccs1` [I-573, 6-((7-((2-methoxy-3-(thiazol-2-yl)phenyl)amino)-2-methyl-3H-imidazo[4,5-b]pyridin-5-yl)amino)picolinonitrile], 1 to 10 nM.
With `COc1c(Nc2cc(Nc3cccc(C#N)n3)nc3[nH]c(C(F)F)nc23)cccc1-c1cnn(C)n1` [I-574, 6-((2-(difluoromethyl)-7-((2-methoxy-3-(2-methyl-2H-1,2,3-triazol-4-yl)phenyl)amino)-3H-imidazo[4,5-b]pyridin-5-yl)amino)picolinonitrile] the figure was 0.1 to 0.5 nM.
